Common to all, as to type: functional
In test [1] the test system is HCT-116. The experiment in a line: Cell cycle arrest in human HCT-116 cells assessed as accumulation of cells at S phase by flow cytometry (reference value: 39.26%). Background: Flow cytometry measures light scatter and fluorescence of single cells or particles in a stream.
For test [2], the system named is HCT-116. Briefly: Induction of apoptosis in human HCT-116 cells assessed as total apoptotic cells measured after 24 hrs by PI based flow cytometry (reference value: 2.38%).
Test [3] relates to HCT-116. Briefly: Induction of apoptosis in human HCT-116 cells assessed as late apoptotic cells measured after 24 hrs by PI based flow cytometry (reference value: […]).
Test [4] has as its system HCT-116. Briefly: Induction of apoptosis in human HCT-116 cells assessed as necrotic apoptotic cells measured after 24 hrs by PI based flow cytometry (reference value: 1.84%).
The subject of test [5] is HCT-116. Briefly: Induction of apoptosis in human HCT-116 cells assessed as early apoptotic cells measured after 24 hrs by PI based flow cytometry (reference value: 0.43%).
The test system of test [6] is HCT-116. The experiment in a line: Cell cycle arrest in human HCT-116 cells assessed as accumulation of cells at G2-M phase by flow cytometry (reference value: 14.41%).
Test [7] concerns HCT-116. Briefly: Cell cycle arrest in human HCT-116 cells assessed as accumulation of cells at G0-G1 phase by flow cytometry (reference value: 46.33%).

In the case of `COc1cc2nc(C)nc(N/N=C/c3cc(CN4CCN(C)CC4)c(O)c(OC)c3)c2cc1OC`, the Activity in test [1] is reported as 49.11%; in test [2] it was 39.88%; in test [3], 11.27%; in test [4], 2.48%; in test [5], 26.13%; in test [6] it was 8.71%. The Activity in test [7] worked out at 42.18%.
